From ChEMBL document CHEMBL1138365, “Application of 3D-QSAR for identification of descriptors defining bioactivity of antimicrobial peptides” (2007)
In brackets after ≈: the same amount, converted by molar mass. Starred links: 1 amine or outer side, 2 acyl side, 3 side chain; linkers in the order of their positions; H or OH if unused. Non-standard residues stand in square brackets, D forms with d. Residues, ends and D or L forms follow the SMILES beside them. ξ: configuration not given here. *: point of attachment. Pro(3ξ,4ξ-(CH2)4) = O=C(O)[C@H]1NCC2CCCCC21; Oic = O=C(O)[C@@H]1C[C@@H]2CCCC[C@@H]2N1; Ethylenediamine = C(CN[*:2])N[*:1]; Tic = O=C(O)[C@@H]1Cc2ccccc2CN1; NH(CH2)3NH2 = NCCCN*

Experiments:
Staphylococcus aureus = experiment: Antibacterial activity against Staphylococcus aureus; assay type: functional
[1] = tested on: Mycolicibacterium fortuitum; experiment: Antibacterial activity against Mycobacterium ranae; assay type: functional

| Compound | MIC (Staphylococcus aureus) | MIC [1] |
| --- | --- | --- |
| CC(C)C[C@@H](NC(=O)CNC(=O)[C@H](CCCCN)NC(=O)CN)C(=O)N1Cc2ccccc2C[C@H]1C(=O)N1CC2CCCCC2[C@H]1C(=O)NCC(=O)N[C@@H](CCCNC(=N)N)C(=O)N1Cc2ccccc2C[C@H]1C(=O)N1CC2CCCCC2[C@H]1C(=O)NCC(=O)N[C@@H](Cc1ccccc1)C(=O)N1Cc2ccccc2C[C@H]1C(=O)N1CC2CCCCC2[C@H]1C(=O)NCC(=O)N[C@@H](CCCNC(=N)N)C(=O)N1Cc2ccccc2C[C@H]1C(=O)N1CC2CCCCC2[C@H]1C(=O)NCC(=O)N[C@@H](Cc1ccccc1)C(=O)N1Cc2ccccc2C[C@H]1C(=O)N1CC2CCCCC2[C@H]1C(=O)NCC(=O)N[C@@H](CCCNC(=N)N)C(=O)N1Cc2ccccc2C[C@H]1C(=O)N1CC2CCCCC2[C@H]1C(=O)NCC(=O)N[C@@H](CCCCN)C(=O)N[C@@H](CCCNC(=N)N)C(N)=O (some centres undefined) | 10 µM (≈ 36.2 µg/mL) | – |
| CC(C)C[C@H](NC(=O)CNC(=O)[C@@H]1C2CCCCC2CN1C(=O)[C@@H]1Cc2ccccc2CN1C(=O)[C@H](CC(C)C)NC(=O)CNC(=O)[C@@H]1C2CCCCC2CN1C(=O)[C@@H]1Cc2ccccc2CN1C(=O)[C@H](CCCCN)NC(=O)CNC(=O)[C@@H]1C2CCCCC2CN1C(=O)[C@@H]1Cc2ccccc2CN1C(=O)[C@H](CC(C)C)NC(=O)CNC(=O)[C@@H]1C2CCCCC2CN1C(=O)[C@@H]1Cc2ccccc2CN1C(=O)[C@H](CCCCN)NC(=O)CNC(=O)[C@@H]1C2CCCCC2CN1C(=O)[C@@H]1Cc2ccccc2CN1C(=O)[C@H](CC(C)C)NC(=O)CNC(=O)[C@@H]1C2CCCCC2CN1C(=O)[C@@H]1Cc2ccccc2CN1C(=O)[C@@H](CC(C)C)NC(=O)CNC(=O)[C@H](CCCCN)NC(=O)CN)C(=O)N[C@@H](CCCNC(=N)N)C(N)=O (some centres undefined) | 100 µM (≈ 344 µg/mL) | – |
| CC(C)C[C@H](NC(=O)CNC(=O)[C@@H]1C2CCCCC2CN1C(=O)[C@@H]1Cc2ccccc2CN1C(=O)[C@H](CCCCN)NC(=O)CNC(=O)[C@@H]1C2CCCCC2CN1C(=O)[C@@H]1Cc2ccccc2CN1C(=O)[C@H](CC(C)C)NC(=O)CNC(=O)[C@@H]1C2CCCCC2CN1C(=O)[C@@H]1Cc2ccccc2CN1C(=O)[C@H](CCCCN)NC(=O)CNC(=O)[C@@H]1C2CCCCC2CN1C(=O)[C@@H]1Cc2ccccc2CN1C(=O)[C@@H](CC(C)C)NC(=O)CNC(=O)[C@H](CCCCN)NC(=O)CN)C(=O)N1Cc2ccccc2C[C@H]1C(=O)N1CC2CCCCC2[C@H]1C(=O)NCC(=O)N[C@@H](CCCCN)C(=O)N1Cc2ccccc2C[C@H]1C(=O)N1CC2CCCCC2[C@H]1C(=O)NCC(=O)N[C@@H](CCCCN)C(=O)N[C@@H](CCCNC(=N)N)C(N)=O (some centres undefined) | 10 µM (≈ 34.7 µg/mL) | – |
| CC(C)C[C@H](NC(=O)CNC(=O)[C@H](CCCCN)NC(=O)CN)C(=O)N1Cc2ccccc2C[C@H]1C(=O)N1CC2CCCCC2[C@H]1C(=O)N[C@H](Cc1ccccc1)C(=O)N[C@H](CCCCN)C(=O)N1Cc2ccccc2C[C@@H]1C(=O)N1CC2CCCCC2[C@H]1C(=O)N[C@H](CCCCN)C(=O)N[C@H](Cc1ccccc1)C(=O)N1Cc2ccccc2C[C@H]1C(=O)N1CC2CCCCC2[C@@H]1C(=O)N[C@H](Cc1ccccc1)C(=O)N[C@H](CCCCN)C(=O)N1Cc2ccccc2C[C@@H]1C(=O)N1CC2CCCCC2[C@H]1C(=O)N[C@@H](CCCCN)C(=O)N[C@@H](Cc1ccccc1)C(=O)N1Cc2ccccc2C[C@@H]1C(=O)N1CC2CCCCC2[C@H]1C(=O)N[C@H](Cc1ccccc1)C(=O)N[C@H](CCCCN)C(=O)N1Cc2ccccc2C[C@@H]1C(=O)N1CC2CCCCC2[C@@H]1C(=O)N[C@H](Cc1ccccc1)C(=O)N[C@@H](CCCCN)C(=O)N[C@@H](CCCNC(=N)N)C(N)=O (some centres undefined) | 30 µM (≈ 121 µg/mL) | – |
| CC(=O)N[C@@H](Cc1ccccc1)C(=O)N1Cc2ccccc2C[C@H]1C(=O)N1CC2CCCCC2[C@H]1C(=O)N[C@@H](CCCCN)C(=O)N1Cc2ccccc2C[C@H]1C(=O)N1CC2CCCCC2[C@H]1C(=O)N[C@@H](Cc1ccccc1)C(=O)N1Cc2ccccc2C[C@H]1C(=O)N1CC2CCCCC2[C@H]1C(=O)N[C@@H](CCCCN)C(=O)N1Cc2ccccc2C[C@H]1C(=O)N[C@@H](CCCCN)C(=O)N[C@@H](CCCCN)C(=O)N[C@@H](CCCCN)C(=O)N[C@@H](CCCCN)C(N)=O (some centres undefined) (Ac-F[Tic][Pro(3ξ,4ξ-(CH2)4)]K[Tic][Pro(3ξ,4ξ-(CH2)4)]F[Tic][Pro(3ξ,4ξ-(CH2)4)]K[Tic]KKKK-NH2) | 3 µM (≈ 6.64 µg/mL) | 30 µM (≈ 66.4 µg/mL) |
| CC(=O)N[C@@H](Cc1ccccc1)C(=O)N1Cc2ccccc2C[C@H]1C(=O)N1CC2CCCCC2[C@H]1C(=O)N[C@@H](CCCCN)C(=O)N1Cc2ccccc2C[C@H]1C(=O)N1CC2CCCCC2[C@H]1C(=O)N[C@@H](Cc1ccccc1)C(=O)N1Cc2ccccc2C[C@H]1C(=O)N1CC2CCCCC2[C@H]1C(=O)N[C@@H](CCCCN)C(=O)N1Cc2ccccc2C[C@H]1C(=O)N[C@@H](CCCCN)C(=O)N[C@@H](CCCCN)C(=O)N[C@@H](CCCCN)C(=O)N[C@@H](CCCCN)C(=O)N[C@@H](CCCCN)C(=O)N[C@@H](CCCCN)C(N)=O (some centres undefined) (Ac-F[Tic][Pro(3ξ,4ξ-(CH2)4)]K[Tic][Pro(3ξ,4ξ-(CH2)4)]F[Tic][Pro(3ξ,4ξ-(CH2)4)]K[Tic]KKKKKK-NH2) | 3 µM (≈ 7.41 µg/mL) | 3 µM (≈ 7.41 µg/mL) |
| CC(=O)NCC(=O)N[C@@H](Cc1ccccc1)C(=O)NCC(=O)N1CC2CCCCC2[C@H]1C(=O)NCC(=O)N[C@@H](CCCCN)C(=O)NCC(=O)N1CC2CCCCC2[C@H]1C(=O)NCC(=O)N[C@@H](Cc1ccccc1)C(=O)NCC(=O)N1CC2CCCCC2[C@H]1C(=O)NCC(=O)N[C@@H](CCCCN)C(=O)NCC(=O)N[C@@H](CCCCN)C(=O)N[C@@H](CCCCN)C(=O)N[C@@H](CCCCN)C(=O)N[C@@H](CCCCN)C(N)=O (some centres undefined) (Ac-GFG[Pro(3ξ,4ξ-(CH2)4)]GKG[Pro(3ξ,4ξ-(CH2)4)]GFG[Pro(3ξ,4ξ-(CH2)4)]GKGKKKK-NH2) | – | 100 µM (≈ 203 µg/mL) |
| CC(=O)NCC(=O)N[C@@H](Cc1ccccc1)C(=O)N1CC2CCCCC2[C@H]1C(=O)NCC(=O)N[C@@H](CCCCN)C(=O)N1CC2CCCCC2[C@H]1C(=O)NCC(=O)N[C@@H](Cc1ccccc1)C(=O)N1CC2CCCCC2[C@H]1C(=O)NCC(=O)N[C@@H](CCCCN)C(=O)N[C@@H](CCCCN)C(=O)N[C@@H](CCCCN)C(=O)N[C@@H](CCCCN)C(=O)N[C@@H](CCCCN)C(N)=O (some centres undefined) (Ac-GF[Pro(3ξ,4ξ-(CH2)4)]GK[Pro(3ξ,4ξ-(CH2)4)]GF[Pro(3ξ,4ξ-(CH2)4)]GKKKKK-NH2) | – | 100 µM (≈ 180 µg/mL) |
| CC(=O)NCC(=O)N[C@@H](Cc1ccccc1)C(=O)N1Cc2ccccc2C[C@H]1C(=O)NCC(=O)NCC(=O)N[C@@H](CCCCN)C(=O)N1Cc2ccccc2C[C@H]1C(=O)NCC(=O)NCC(=O)N[C@@H](Cc1ccccc1)C(=O)N1Cc2ccccc2C[C@H]1C(=O)NCC(=O)NCC(=O)N[C@@H](CCCCN)C(=O)N1Cc2ccccc2C[C@H]1C(=O)N[C@@H](CCCCN)C(=O)N[C@@H](CCCCN)C(=O)N[C@@H](CCCCN)C(=O)N[C@@H](CCCCN)C(N)=O (Ac-GF[Tic]GGK[Tic]GGF[Tic]GGK[Tic]KKKK-NH2) | – | 30 µM (≈ 64.8 µg/mL) |
| CC(=O)NCC(=O)N[C@@H](Cc1ccccc1)C(=O)N1Cc2ccccc2C[C@H]1C(=O)NCC(=O)N[C@@H](CCCCN)C(=O)N1Cc2ccccc2C[C@H]1C(=O)NCC(=O)N[C@@H](Cc1ccccc1)C(=O)N1Cc2ccccc2C[C@H]1C(=O)NCC(=O)N[C@@H](CCCCN)C(=O)N1Cc2ccccc2C[C@H]1C(=O)N[C@@H](CCCCN)C(=O)N[C@@H](CCCCN)C(=O)N[C@@H](CCCCN)C(=O)N[C@@H](CCCCN)C(N)=O (Ac-GF[Tic]GK[Tic]GF[Tic]GK[Tic]KKKK-NH2) | – | 30 µM (≈ 59.6 µg/mL) |
| CC(=O)NCC(=O)N[C@@H](Cc1ccccc1)C(=O)N1Cc2ccccc2C[C@H]1C(=O)N1[C@H](C(=O)NCC(=O)N[C@@H](CCCCN)C(=O)N2Cc3ccccc3C[C@H]2C(=O)N2[C@H](C(=O)NCC(=O)N[C@@H](Cc3ccccc3)C(=O)N3Cc4ccccc4C[C@H]3C(=O)N3[C@H](C(=O)NCC(=O)N[C@@H](CCCCN)C(=O)N4Cc5ccccc5C[C@H]4C(=O)N[C@@H](CCCCN)C(=O)N[C@@H](CCCCN)C(=O)N[C@@H](CCCCN)C(=O)N[C@@H](CCCCN)C(=O)NCCN)C[C@@H]4CCCC[C@@H]43)C[C@@H]3CCCC[C@@H]32)C[C@@H]2CCCC[C@@H]21 (Ac-GF[Tic][Oic]GK[Tic][Oic]GF[Tic][Oic]GK[Tic]KKKK-Ethylenediamine) | 3 µM (≈ 7.45 µg/mL) | 10 µM (≈ 24.8 µg/mL) |
| CC(=O)NCC(=O)N[C@@H](Cc1ccccc1)C(=O)N1Cc2ccccc2C[C@H]1C(=O)N1[C@H](C(=O)NCC(=O)N[C@@H](CCCCN)C(=O)N2Cc3ccccc3C[C@H]2C(=O)N2[C@H](C(=O)NCC(=O)N[C@@H](Cc3ccccc3)C(=O)N3Cc4ccccc4C[C@H]3C(=O)N3[C@H](C(=O)NCC(=O)N[C@@H](CCCCN)C(=O)N4Cc5ccccc5C[C@H]4C(=O)N[C@@H](CCCCN)C(=O)N[C@@H](CCCCN)C(=O)N[C@@H](CCCCN)C(=O)N[C@@H](CCCCN)C(=O)NCCCN)C[C@@H]4CCCC[C@@H]43)C[C@@H]3CCCC[C@@H]32)C[C@@H]2CCCC[C@@H]21 (Ac-GF[Tic][Oic]GK[Tic][Oic]GF[Tic][Oic]GK[Tic]KKKK-{NH(CH2)3NH2}) | 10 µM (≈ 25 µg/mL) | 10 µM (≈ 25 µg/mL) |
| CC(=O)NCC(=O)N[C@@H](Cc1ccccc1)C(=O)N1Cc2ccccc2C[C@H]1C(=O)N1CC2CCCCC2[C@H]1C(=O)NCC(=O)N[C@@H](CCCCN)C(=O)N1Cc2ccccc2C[C@H]1C(=O)N1CC2CCCCC2[C@H]1C(=O)NCC(=O)N[C@@H](Cc1ccccc1)C(=O)N1Cc2ccccc2C[C@H]1C(=O)N1CC2CCCCC2[C@H]1C(=O)NCC(=O)N[C@@H](CCCCN)C(=O)N1Cc2ccccc2C[C@H]1C(=O)N[C@@H](CCCCN)C(=O)N[C@@H](CCCCN)C(=O)N[C@@H](CCCCN)C(=O)N[C@@H](CCCCN)C(N)=O (some centres undefined) (Ac-GF[Tic][Pro(3ξ,4ξ-(CH2)4)]GK[Tic][Pro(3ξ,4ξ-(CH2)4)]GF[Tic][Pro(3ξ,4ξ-(CH2)4)]GK[Tic]KKKK-NH2) | 3 µM (≈ 7.32 µg/mL) | 10 µM (≈ 24.4 µg/mL) |
| CC(C)C[C@H](NC(=O)CNC(=O)[C@H](CCCCN)NC(=O)CN)C(=O)N1Cc2ccccc2C[C@H]1C(=O)N1CC2CCCCC2[C@H]1C(=O)NCC(=O)N[C@@H](CCCCN)C(=O)N1Cc2ccccc2C[C@H]1C(=O)N1CC2CCCCC2[C@H]1C(=O)NCC(=O)N[C@@H](Cc1ccccc1)C(=O)N1Cc2ccccc2C[C@H]1C(=O)N1CC2CCCCC2[C@H]1C(=O)NCC(=O)N[C@@H](CCCCN)C(=O)N1Cc2ccccc2C[C@H]1C(=O)N1CC2CCCCC2[C@H]1C(=O)NCC(=O)N[C@@H](Cc1ccccc1)C(=O)N1Cc2ccccc2C[C@H]1C(=O)N1CC2CCCCC2[C@H]1C(=O)NCC(=O)N[C@@H](CCCCN)C(=O)N1Cc2ccccc2C[C@H]1C(=O)N1CC2CCCCC2[C@H]1C(=O)NCC(=O)N[C@@H](CCCCN)C(=O)N[C@@H](CCCNC(=N)N)C(N)=O (some centres undefined) (H-GKGL[Tic][Pro(3ξ,4ξ-(CH2)4)]GK[Tic][Pro(3ξ,4ξ-(CH2)4)]GF[Tic][Pro(3ξ,4ξ-(CH2)4)]GK[Tic][Pro(3ξ,4ξ-(CH2)4)]GF[Tic][Pro(3ξ,4ξ-(CH2)4)]GK[Tic][Pro(3ξ,4ξ-(CH2)4)]GKR-NH2) | 10 µM (≈ 35.4 µg/mL) | – |
